Reference: patent US10730875B2, “Substituted imidazo[1,2-A]pyridin-2-ylamine compounds, and pharmaceutical compositions and methods of use thereof” (JN Therapeutics, priority 2015, dated 2020)

How the values were obtained:
Type in all cases: biochemical
[1] = biological target: human Janus kinase 1 (JAK1), recombinant catalytic domain (Homo sapiens (Human), UniProt P23458); experiment: LanthaScreen TR-FRET enzymatic assay, JAK1; conditions: 1 mM ATP, GFP-STAT1 substrate, read-out: Inhibitory Activity IC50 JAK1
Experimental: (§1) The in vitro inhibition of recombinant human JAKs was determined as follow.
(§2) Compounds were tested in LANTHASCREEN™ time-resolved fluorescence energy transfer (TR-FRET) enzymatic assays from Invitrogen. The human Janus kinase 1 (JAK1) used in the assay is the recombinant JAK1 catalytic domain (amino acids 866-1154) expressed and purified from insect cells (Invitrogen, Cat. No. PV4774). The human Janus kinase 2 (JAK2) used in the assay is the recombinant JAK2 catalytic domain (amino acids 808-1132) expressed and purified from insect cells (Invitrogen, Cat. No. PV4210). The human Janus kinase 3 (JAK3) used in the assay is the recombinant JAK3 catalytic domain (amino acids 781-1124) expressed and purified from insect cells (Invitrogen, Cat. No. PV3855). The human tyrosine kinase 2 (TYK2) used in the assay is the recombinant TYK2 catalytic domain (amino acids 833-1187) expressed and purified from insect cells (Invitrogen, Cat. No. PV4790). The substrate is a recombinant STAT1 expressed as a fusion with GFP (Green Fluorescent Protein) to act as a physiological substrate (Invitrogen, Cat. No. PV5211).
(§3) Test compounds were prepared and diluted in DMSO in 3-fold serial dilutions for 10 doses to 100× of the final testing concentrations. The compounds were then further diluted to 4× by the kinase reaction buffer (Invitrogen, Cat. No. PV3189). The enzymatic reaction for compound testing was performed in a white 384-well polypropylene plate (Packard, Cat. No. 6005214) with a total reaction volume of 10 μL containing 440 ng/mL JAK1, 11 ng/mL JAK2, 400 ng/mL JAK3, or 200 ng/mL TYK2, 100 nM substrate, and 1 mM ATP. The assay started with loading 2.5 μL of JAK1, JAK2, JAK3, or TYK2 diluted in the kinase reaction buffer to wells, followed by addition of an equal volume of 4× compounds for 15-min incubation at room temperature for pre-treatment. The enzymatic reaction was initiated by addition of 5 μL of a mixture of the substrate and ATP prepared in the kinase reaction buffer. After one hour reaction, 10 μL mixture of EDTA (final 10 mM) and terbium-labeled anti-pSTAT1 (pTyr701) antibody (final 2 nM) (Invitrogen, Cat. No. PV4844) prepared in TR-FRET antibody dilution buffer (Invitrogen, Cat. No. PV3574) was added to stop the enzymatic reaction and produce TR-FRET signals. After 30 minutes of incubation at room temperature, the plate was read in Tecan Infinite F200 Pro with the following settings: Excitation 340 nm (30)/Emission1 495 nm (10)/Emission2 520 nm (25). The TR-FRET values were dimensionless numbers that were calculated as the ratio of the acceptor ([…]) signal to the donor (Terbium) signal. Percent of inhibition was calculated as (100%−percentage of compound-treated/DMSO vehicle-treated). The dose-response curves were generated and the IC50s were calculated by nonlinear sigmoid curve fitting using GraphPad Prism.
(§4) In Table 1, A represents a value no greater than 500 nM, B represents a value greater than 500 nM but no greater than 1 μM, C represents a value greater than 1 μM but no greater than 5 μM, and D represents a value greater than 5 μM. In Table 2, A′ represents a ratio of greater than 8, B′ represents a ratio of no greater than 8 but no less than 4, C′ represents a ratio of no greater than 4 but no less than 2, and D′ represents a ratio of no greater than 2. The selectivity is expressed as a ratio of the IC50 values of a compound against two kinases to be compared.

[2] = biological target: human Janus kinase 2 (JAK2), recombinant catalytic domain (Homo sapiens (Human), UniProt O60674); experiment: LanthaScreen TR-FRET enzymatic assay, JAK2; conditions: for IC50: TR-FRET, 1 mM ATP, GFP-STAT1 substrate, read-out: Inhibitory Activity IC50 JAK2; for Selectivity JAK2/JAK1: ratio of IC50 against JAK2 over IC50 against JAK1
Experimental: as §1, §2, §3, §4

[3] = biological target: human Janus kinase 3 (JAK3), recombinant catalytic domain (Homo sapiens (Human), UniProt P52333); experiment: LanthaScreen TR-FRET enzymatic assay, JAK3; conditions: TR-FRET, 1 mM ATP, GFP-STAT1 substrate; read-out: Inhibitory Activity IC50 JAK3
Experimental: as §1, §2, §3, §4

[4] = test system: human Janus kinase 3 (JAK3), recombinant catalytic domain; experiment: LanthaScreen TR-FRET enzymatic assay, JAK3; conditions: ratio of IC50 against JAK3 over IC50 against JAK1
Experimental: as §1, §2, §3, §4

[5] = biological target: human tyrosine kinase 2 (TYK2), recombinant catalytic domain (Homo sapiens (Human), UniProt P29597); experiment: LanthaScreen TR-FRET enzymatic assay, TYK2; conditions: TR-FRET, 1 mM ATP, GFP-STAT1 substrate; read-out: Inhibitory Activity IC50 TYK2
Experimental: as §1, §2, §3, §4

[6] = test system: human tyrosine kinase 2 (TYK2), recombinant catalytic domain; experiment: LanthaScreen TR-FRET enzymatic assay, TYK2; conditions: ratio of IC50 against TYK2 over IC50 against JAK1
Experimental: as §1, §2, §3, §4

Chain of human Janus kinase 2 (JAK2), recombinant catalytic domain (O60674 808-1132): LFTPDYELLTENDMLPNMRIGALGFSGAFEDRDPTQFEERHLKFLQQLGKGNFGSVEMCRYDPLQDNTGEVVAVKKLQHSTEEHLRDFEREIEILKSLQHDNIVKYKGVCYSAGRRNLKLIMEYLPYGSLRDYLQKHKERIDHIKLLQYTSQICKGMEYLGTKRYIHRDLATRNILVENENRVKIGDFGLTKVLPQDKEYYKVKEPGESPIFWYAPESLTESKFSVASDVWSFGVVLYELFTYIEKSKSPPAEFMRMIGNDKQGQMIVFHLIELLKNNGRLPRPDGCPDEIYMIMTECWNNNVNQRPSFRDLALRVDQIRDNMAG
Chain of human Janus kinase 1 (JAK1), recombinant catalytic domain (P23458 866-1154): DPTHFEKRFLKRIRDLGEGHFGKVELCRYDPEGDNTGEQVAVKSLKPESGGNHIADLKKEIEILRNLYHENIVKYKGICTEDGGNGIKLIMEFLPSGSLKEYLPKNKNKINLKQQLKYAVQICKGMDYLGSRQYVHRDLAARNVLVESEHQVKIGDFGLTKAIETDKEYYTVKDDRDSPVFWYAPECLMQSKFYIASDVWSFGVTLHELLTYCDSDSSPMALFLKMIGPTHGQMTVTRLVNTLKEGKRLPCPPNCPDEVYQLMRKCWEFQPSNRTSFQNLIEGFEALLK
Chain of human Janus kinase 3 (JAK3), recombinant catalytic domain (Homo sapiens (Human), UniProt P52333) (P52333 781-1124): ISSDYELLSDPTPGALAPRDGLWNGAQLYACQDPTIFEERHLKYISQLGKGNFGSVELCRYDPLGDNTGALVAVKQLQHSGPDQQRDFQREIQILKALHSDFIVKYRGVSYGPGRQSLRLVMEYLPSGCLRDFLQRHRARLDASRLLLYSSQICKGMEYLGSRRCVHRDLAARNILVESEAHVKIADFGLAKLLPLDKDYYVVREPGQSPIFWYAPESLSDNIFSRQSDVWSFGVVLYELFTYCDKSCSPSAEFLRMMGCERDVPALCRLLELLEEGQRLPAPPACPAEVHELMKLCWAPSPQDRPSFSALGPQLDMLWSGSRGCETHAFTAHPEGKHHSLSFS
Chain of human tyrosine kinase 2 (TYK2), recombinant catalytic domain (Homo sapiens (Human), UniProt P29597) (P29597 833-1187): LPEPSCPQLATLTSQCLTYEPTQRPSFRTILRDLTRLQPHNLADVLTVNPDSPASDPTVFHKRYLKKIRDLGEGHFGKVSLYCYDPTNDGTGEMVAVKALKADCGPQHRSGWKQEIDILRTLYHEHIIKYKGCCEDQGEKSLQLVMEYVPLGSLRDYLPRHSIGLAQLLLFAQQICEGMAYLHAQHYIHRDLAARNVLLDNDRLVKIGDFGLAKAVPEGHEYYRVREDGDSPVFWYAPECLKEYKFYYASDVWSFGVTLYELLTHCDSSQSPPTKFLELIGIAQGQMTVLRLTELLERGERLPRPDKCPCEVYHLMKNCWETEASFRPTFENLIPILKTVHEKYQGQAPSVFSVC

SMILES | IC50 [1] [µM] | IC50 [2] [µM] | Selectivity JAK2/JAK1 [2] | IC50 [3] [µM] | Selectivity JAK3/JAK1 [4] | IC50 [5] [µM] | Selectivity TYK2/JAK1 [6]
CC1(C)CN(Cc2ccc(-c3cccc4nc(NC(=O)C5CC5)cn34)cc2)C1 [Compound 25] | > 5 | > 5 | A′ (A′ represents a ratio of greater than 8) | > 5 | A′ (A′ represents a ratio of greater than 8) | > 5 | A′ (A′ represents a ratio of greater than 8)
CC(C#N)c1ccc(-c2cccc3nc(NC(=O)C4CC4)cn23)cc1 (centres unmarked) [Compound 27] | 0.5 to 1 | > 5 | A′ (A′ represents a ratio of greater than 8) | > 5 | A′ (A′ represents a ratio of greater than 8) | > 5 | A′ (A′ represents a ratio of greater than 8)
O=C(Nc1cn2c(-c3cccc(CN4CCS(=O)(=O)CC4)c3)cccc2n1)C1CC1 [Compound 29] | > 5 | > 5 | C′ (C′ represents a ratio of no greater than 4 but no less than 2) | > 5 | A′ (A′ represents a ratio of greater than 8) | > 5 | C′ (C′ represents a ratio of no greater than 4 but no less than 2)
N#CCc1ccccc1NCc1ccc(-c2cccc3nc(NC(=O)C4CC4)cn23)cc1 [Compound 32] | ≤ 0.5 | > 5 | A′ (A′ represents a ratio of greater than 8) | > 5 | A′ (A′ represents a ratio of greater than 8) | > 5 | A′ (A′ represents a ratio of greater than 8)
Cc1cc(-c2ccc(CN3CCS(=O)(=O)CC3)cc2)n2cc(NC(=O)C3CC3)nc2c1 [Compound 33] | > 5 | > 5 | A′ (A′ represents a ratio of greater than 8) | > 5 | A′ (A′ represents a ratio of greater than 8) | > 5 | A′ (A′ represents a ratio of greater than 8)
